Experimental data published in US4585773A, “Isoindolinyl-alkyl-piperazines” (Bristol-Myers Company, priority 1984, dated 1986).
Read-outs that look alike come from different tables or passages of the source.

How the values were obtained:
α1 = assay: in vitro α1 binding, [3H]WB-4101 (Table IV); conditions: for IC50: [3H]WB-4101, brain tissue, 50 mM Hepes.KOH, pH 7.4, read-out: α1 Binding IC50
Procedure: In this Example the compounds of Examples I-XI were tested in vitro for α1 and α2 binding. The compound of Example I was tested as its monochloride 2-propanolate hydrate, i.e. as C22 […] CLN4 O4 S .HCl.0.2(CH3)2 CHOH 0.15H2 O. In the testing specific brain tissues were prepared as sources of binding sites. Aliquots of the washed members are incubated with a low concentration of […]. After incubation at suitable temperature, the reaction mixture is treated to separate the membrane-bound radioligand Radioactivity is measured. Linear regression analysis of the probit value for the percent of binding occurring in the presence of varying concentrations of the compound of interest plotted against the concentration of the compound yields concentrations which inhibit 50% specific binding, the IC50. The assay buffer is 50 mM Hepes.KOH, pH 7.4. The ligand is [^3 H]WB-4101 from New England Nuclear for α1 and [^3 H]Clonidine from New England Nuclear for α2. The results are considered against phentolamine methanesulfonate (Reference) which is considered a good α-binder.

[1] = conscious rat diuretic screen of Lipschitz (Table I); assay type: in vivo, rat (female Sprague Dawley; male Okamoto-Aoki); conditions: for response vs control in vivo at 0.3 mg/kg / response vs control in vivo at 3 mg/kg / response vs control in vivo at 30 mg/kg / response vs control in vivo at 10 mg/kg: Rattus norvegicus, po
Procedure: With respect to diuretic utility there can be mentioned the conscious rat diuretic screen of Lipschitz, et al. (J. Pharmacol. Exp. Therap. 79, 97-110 (1943)). In this test, dose response assays of diuretic, natruiretic and kaliuretic activity are determined by oral administration of the test substance. The compounds synthesized in Examples I-XI were tested for diuretic […]. The compound of Example I was tested as its monohydrochloride 2-propanolate hydrate, i.e. as C22 […] ClN4 O4 S.HCl. 0.2(CH3)2 CHOH.0.15H2 O. Testing was carried out by the diuretic screen of Lipschitz, et al. described previously. In Table I below Volume Ratio is the ratio of total volume excreted for the test comuound compared to the total volume excreted for the control, Na^+ Ratio is the Na^+ excreted for the test compound compared to the Na^+ excreted for the control, K^+ Ratio is the K^+ excreted for the test compound compared to the K^+ excreted for the control. Female Sprague Dawley rats were used in Test Nos. 1, 2, 6, 7, 11-29. Male Okamoto-Aoki rats were used in Test Nos. 3-5 and 8-10 and testing for antihypertensive activity was carried out simultaneously on the Test Nos. 3-5 rats. In some instances, compounds were retested at the same dose level.

[2] = test system: Spontaneously Hypertensive rat; assay: antihypertensive activity, Spontaneously Hypertensive Rat (Table II); assay type: in vivo; conditions: for antihypertensive effect (in words): conclusion from Table II (SHR, and DOCA for Examples I-IV)
Procedure: Spontaneously Hypertensive Rat Male rats weighing 300-400 g, previously conditioned to the procedure, are prewarmed in a heating chamber (30° C.) for 10-20 min. and subsequently restrained in a wire holder at that temperature. Systolic blood pressure and heart rate are measured by the tailcuff technique using a pneumatic pulse transducer and a biotachometer before, and 2, 4, and 24 hours after oral administration of vehicle (0.25% Methocel in water) or test compounds suspended in vehicle at a dose volume equivalent to 5 ml/kg. Blood pressure and heart rate data are reported as changes from zero-hour measurements with vehicle control groups run periodically to confirm that the vehicle has no effect. Testing was carried out on the compounds of Examples I-XII for antihypertensive activity. In the case of all the compounds testing was carried out on the Spontaneously Hypertensive rat as described hereinbefore. In the case of the compounds of Examples I-IV testing was also carried out on the DOCA-salt Hypertensive Rat. The compound of Example I was tested as its monochloride 2-propanolate hydrate, i.e. as C22 […] ClN4 O4 S.HCl.0.2(CH3)2 CHOH.0.15H2 O in Tests 1-5; and as the 3/4 mole hydrochloride, i.e. C22 […] ClN4 O4 S: 3/4 HCl in Tests 3a, 4a, 5a-5d. Test results are set forth in Table II below wherein SHR stands for Spontaneously Hypertensive rat, DOCA stands for DOCA-salt Hypertensive Rat, ΔBP stands for the change in systolic blood pressure in mm Hg, ΔHR stands for the change in mean heart rate in beats per minute and the times set forth are the times after dosing. A peak change in ΔBP of more than 20 is considered as indicating activity.

[3] = test system: α blocking activity (phenylephrine); assay: in vivo α blocking activity, phenylephrine (PE) as α-agonist (Table III); design: species or system rat; ED50: unit not given beside the values; conditions: for Average Dose Shift: ED50 after/before drug, PE; for in vivo α blocking activity (in words): conclusion from Table III; for ED50: iv
Procedure: In this example the compounds of Examples I (modified), II, III, V, VI, VII, VIII, IX and XI were tested in rats for in vivo α blocking activity according to methodology described at page 312 of Deitchman, et al., Journal of Pharmacological Methods, 3, 311-321 (1980). In this test phenylephrine (PE below) or norepinephrine (NE below) was administered as an α-agonist to the rats before and after dosing with the test drug and the average interpolated dose or PE/NE effecting a 50 mm Hg increase in mean arterial blood pressure was determined. Table III below records the results. In such Table, ED50 stands for such average interpolated dose and Average Dose Shift stands for the average ratio of ED50 after drug administration to ED50 before drug administration. The compound of Example I was tested as its monochloride 2-propanolate hydrate, i.e. as C22 H27 ClN4 O4 S.HCl 0.2(CH3)2 CHOH.0.15H2 O in Tests 1-5 and as the 3/4 mole hydrochloride, i.e. C22 H27 ClN 4 O4 S.3/4HCL in Tests 2a and 3a. The route was intravenous except in the case of the runs of Test Nos. 2a, 3, 3a, 26-29 the route was oral.

[4] = 3 mg/kg oral, male Okamoto-Aoki rats
[5] = 30 mg/kg oral, female Sprague Dawley rats
[6] = 30 mg/kg oral, male Okamoto-Aoki rats
[7] = 3 mg/kg oral, male Okamoto-Aoki rats, read-out: K+ Ratio
[8] = 3 mg/kg oral, male Okamoto-Aoki rats, read-out: Na+ Ratio
[9] = 3 mg/kg oral, male Okamoto-Aoki rats, read-out: Volume Ratio
[10] = 30 mg/kg oral, female Sprague Dawley rats, read-out: K+ Ratio
[11] = 30 mg/kg oral, female Sprague Dawley rats, read-out: Na+ Ratio
[12] = 30 mg/kg oral, female Sprague Dawley rats, read-out: Volume Ratio
[13] = 30 mg/kg oral, male Okamoto-Aoki rats, read-out: K+ Ratio
[14] = 30 mg/kg oral, male Okamoto-Aoki rats, read-out: Na+ Ratio
[15] = 30 mg/kg oral, male Okamoto-Aoki rats, read-out: Volume Ratio
[16] = SHR, 3.0 mg/kg oral, as 3/4 mole hydrochloride
[17] = SHR, 30 mg/kg oral, as 3/4 mole hydrochloride
[18] = SHR, 3.0 to 30 mg/kg body weight

COc1ccccc1N1CCN(CCCN2Cc3cc(Cl)c(S(N)(=O)=O)cc3C2=O)CC1 [Example I, 6-chloro-2,3-dihydro-2-[3-[4-(2-methoxyphenyl)-1-piperazinyl]propyl]-3-oxo-1H-isoindole-5-sulfonamide]
IC50 (α1): 1.48 nM
α1 binding activity (in words) (α1; listed as MJ 15037): demonstrates activity in binding both α1 and α2 sites
Urinary Na/K (Test Compound) ([1]; 0.3 mg/kg oral, male Okamoto-Aoki rats): 0.81
Urinary Na/K (Test Compound) ([1]; 3 mg/kg oral, female Sprague Dawley rats): 2.55
Urinary Na/K (Test Compound) [1, 4]: 1.14
Urinary Na/K (Test Compound) [1, 5]: 2.98
Urinary Na/K (Test Compound) [1, 6]: 1.56
natriuretic response (in words) ([1]; 3.0 to 30 mg/kg body weight): dose-dependent natriuretic response
response vs control in vivo at 0.3 mg/kg ([1]; 0.3 mg/kg oral, male Okamoto-Aoki rats, read-out: K+ Ratio): 78%
response vs control in vivo at 0.3 mg/kg ([1]; 0.3 mg/kg oral, male Okamoto-Aoki rats, read-out: Na+ Ratio): 96%
response vs control in vivo at 0.3 mg/kg ([1]; 0.3 mg/kg oral, male Okamoto-Aoki rats, read-out: Volume Ratio): 82%
response vs control in vivo at 3 mg/kg ([1]; 3 mg/kg oral, female Sprague Dawley rats, read-out: K+ Ratio): 100%
response vs control in vivo at 3 mg/kg ([1]; 3 mg/kg oral, female Sprague Dawley rats, read-out: Na+ Ratio): 108%
response vs control in vivo at 3 mg/kg ([1]; 3 mg/kg oral, female Sprague Dawley rats, read-out: Volume Ratio): 93%
response vs control in vivo at 3 mg/kg [1, 7]: 103%
response vs control in vivo at 3 mg/kg [1, 8]: 168%
response vs control in vivo at 3 mg/kg [1, 9]: 204%
response vs control in vivo at 30 mg/kg [1, 10]: 106%
response vs control in vivo at 30 mg/kg [1, 11]: 136%
response vs control in vivo at 30 mg/kg [1, 12]: 98%
response vs control in vivo at 30 mg/kg [1, 13]: 117%
response vs control in vivo at 30 mg/kg [1, 14]: 261%
response vs control in vivo at 30 mg/kg [1, 15]: 251%
ΔBP 4 hours ([2]; SHR, 0.3 mg/kg oral): -18 ± 6 mm Hg
ΔHR 4 hours ([2]; SHR, 0.3 mg/kg oral): 11 ± 3 beats per minute
ΔBP 4 hours ([2]; SHR, 3.0 mg/kg oral): -43 ± 7 mm Hg
ΔHR 4 hours ([2]; SHR, 3.0 mg/kg oral): 10 ± 15 beats per minute
ΔBP 2 hours [2, 16]: -23 ± 8 mm Hg
ΔBP 4 hours [2, 16]: -10 ± 5 mm Hg
ΔHR 2 hours [2, 16]: 8 ± 10 beats per minute
ΔHR 4 hours [2, 16]: 14 ± 18 beats per minute
ΔBP 2 hours ([2]; SHR, 30 mg/kg oral): -84 ± 10 mm Hg
ΔHR 2 hours ([2]; SHR, 30 mg/kg oral): 16 ± 15 beats per minute
ΔBP 2 hours [2, 17]: -97 ± 10 mm Hg
ΔBP 4 hours [2, 17]: -52 ± 13 mm Hg
ΔHR 2 hours [2, 17]: 16 ± 8 beats per minute
ΔHR 4 hours [2, 17]: 2 ± 9 beats per minute
systolic blood pressure / antihypertensive activity (in words) [2, 18]: dose-dependent decrease in systolic blood pressure
time at which antihypertensive effect seen [2, 18]: about two
antihypertensive effect (in words) [2]: good antihypertensive effect without significantly affecting heart rate
Average Dose Shift ([3]; dose 30, oral): 33 ± 11
in vivo α blocking activity (in words) [3]: active as in vivo α blockers
ED50 [3]: 161.8

COc1ccccc1N1CCN(CCN2Cc3cc(Cl)c(S(N)(=O)=O)cc3C2=O)CC1 [Example III, 6-Chloro-2,3-dihydro-2-[2-[4-(2-methoxyphenyl)-1-piperazinyl]ethyl]-3-oxo-1H-isoindole-5-sulfonamide]
IC50 (α1): 23.4 nM
Urinary Na/K (Test Compound) [1, 4]: 6.1
Urinary Na/K (Test Compound) ([1]; 10 mg/kg oral, male Okamoto-Aoki rats): 6.7
Urinary Na/K (Test Compound) [1, 5]: 3.44
Urinary Na/K (Test Compound) [1, 6]: 6.7
response vs control in vivo at 3 mg/kg [1, 7]: 121%
response vs control in vivo at 3 mg/kg [1, 8]: 113%
response vs control in vivo at 3 mg/kg [1, 9]: 122%
response vs control in vivo at 10 mg/kg ([1]; 10 mg/kg oral, male Okamoto-Aoki rats, read-out: K+ Ratio): 115%
response vs control in vivo at 10 mg/kg ([1]; 10 mg/kg oral, male Okamoto-Aoki rats, read-out: Na+ Ratio): 116%
response vs control in vivo at 10 mg/kg ([1]; 10 mg/kg oral, male Okamoto-Aoki rats, read-out: Volume Ratio): 126%
response vs control in vivo at 30 mg/kg [1, 10]: 116%
response vs control in vivo at 30 mg/kg [1, 11]: 134%
response vs control in vivo at 30 mg/kg [1, 12]: 116%
response vs control in vivo at 30 mg/kg [1, 13]: 130%
response vs control in vivo at 30 mg/kg [1, 14]: 135%
response vs control in vivo at 30 mg/kg [1, 15]: 163%
ΔBP 2 hours ([2]; SHR, 30 mg/kg oral): -47 ± 14 mm Hg
ΔBP 4 hours ([2]; SHR, 30 mg/kg oral): -69 ± 20 mm Hg
ΔHR 2 hours ([2]; SHR, 30 mg/kg oral): 10 ± 3 beats per minute
ΔHR 4 hours ([2]; SHR, 30 mg/kg oral): 10 ± 10 beats per minute
antihypertensive effect (in words) [2]: good antihypertensive effect without significantly affecting heart rate
Average Dose Shift ([3]; dose 10, intravenous): dose too high
in vivo α blocking activity (in words) [3]: active as in vivo α blockers
ED50 [3]: 41.0
